# Measurements: US20220132847A1, “CINNOLINIUM COMPOUNDS FOR USE IN A METHOD OF CONTROLLING UNWANTED PLANT GROWTH” (SYNGENTA CROP PROTECTION AG, priority 2019, published 2022)
# Where a name gives a salt, the structure may show the parent alone.
# Assays:
# Test in all cases: Post-emergence efficacy, glasshouse
# Format in all cases: in vivo
# Eleusine indica (ELEIN) = details: Eleusine indica, post-emergence, 312 h, evaluated after 13 days, 100=total damage to plant, 0=no damage to plant, read-out: Control of weed species after post-emergence application, ELEIN; for pest or weed control at 1000 g/ha: Application Rate 1000 g/Ha; for pest or weed control at 500 g/ha: Application Rate 500 g/Ha
# How it was run: (§1)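 Visual damage score, 0–100 (100 = total plant damage), 13 days after spraying. Spray: IF50/acetone formulation diluted in water with 0.25% or 1% sodium lauryl ether sulphate + 1% ammonium sulphate, applied to 14-day-old pot-grown plants.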
# [1] = tested on: Chenopodium album (CHEAL); details: Chenopodium album, post-emergence, 312 h, evaluated after 13 days, 100=total damage to plant, 0=no damage to plant, read-out: Control of weed species after post-emergence application, CHEAL; for pest or weed control at 1000 g/ha: Application Rate 1000 g/Ha; for pest or weed control at 500 g/ha: Application Rate 500 g/Ha
# How it was run: as §1
# [2] = tested on: Echinochloa crus-galli (ECHCG); details: Echinochloa crus-galli, post-emergence, 312 h, evaluated after 13 days, 100=total damage to plant, 0=no damage to plant, read-out: Control of weed species after post-emergence application, ECHCG; for pest or weed control at 1000 g/ha: Application Rate 1000 g/Ha; for pest or weed control at 500 g/ha: Application Rate 500 g/Ha
# How it was run: as §1
# [3] = tested on: Digitaria sanguinalis (DIGSA); details: Digitaria sanguinalis, post-emergence, 312 h, evaluated after 13 days, 100=total damage to plant, 0=no damage to plant, read-out: Control of weed species after post-emergence application, DIGSA; for pest or weed control at 1000 g/ha: Application Rate 1000 g/Ha; for pest or weed control at 500 g/ha: Application Rate 500 g/Ha
# How it was run: as §1
# [4] = tested on: Ipomoea hederacea (IPOHE); details: Ipomoea hederacea, post-emergence, 312 h, evaluated after 13 days, 100=total damage to plant, 0=no damage to plant, read-out: Control of weed species after post-emergence application, IPOHE; for pest or weed control at 1000 g/ha: Application Rate 1000 g/Ha; for pest or weed control at 500 g/ha: Application Rate 500 g/Ha
# How it was run: as §1
# Lolium perenne (LOLPE) = details: Lolium perenne, post-emergence, 312 h, evaluated after 13 days, 100=total damage to plant, 0=no damage to plant, read-out: Control of weed species after post-emergence application, LOLPE; for pest or weed control at 1000 g/ha: Application Rate 1000 g/Ha; for pest or weed control at 500 g/ha: Application Rate 500 g/Ha
# How it was run: as §1
# [5] = tested on: Euphorbia heterophylla (EPHHL); details: Euphorbia heterophylla, post-emergence, 312 h, evaluated after 13 days, 100=total damage to plant, 0=no damage to plant, read-out: Control of weed species after post-emergence application, EPHHL; for pest or weed control at 1000 g/ha: Application Rate 1000 g/Ha; for pest or weed control at 500 g/ha: Application Rate 500 g/Ha
# How it was run: as §1
# Setaria faberi (SETFA) = details: Setaria faberi, post-emergence, 312 h, evaluated after 13 days, 100=total damage to plant, 0=no damage to plant, read-out: Control of weed species after post-emergence application, SETFA; for pest or weed control at 1000 g/ha: Application Rate 1000 g/Ha; for pest or weed control at 500 g/ha: Application Rate 500 g/Ha
# How it was run: as §1
# [6] = tested on: Amaranthus palmeri (AMAPA); details: Amaranthus palmeri, post-emergence, 312 h, evaluated after 13 days, 100=total damage to plant, 0=no damage to plant, read-out: Control of weed species after post-emergence application, AMAPA; for pest or weed control at 1000 g/ha: Application Rate 1000 g/Ha; for pest or weed control at 500 g/ha: Application Rate 500 g/Ha
# How it was run: as §1
Compound,pest or weed control at 1000 g/ha (Eleusine indica (ELEIN)),pest or weed control at 1000 g/ha [1],pest or weed control at 1000 g/ha [2],pest or weed control at 1000 g/ha [3],pest or weed control at 1000 g/ha [4],pest or weed control at 1000 g/ha (Lolium perenne (LOLPE)),pest or weed control at 1000 g/ha [5],pest or weed control at 1000 g/ha (Setaria faberi (SETFA)),pest or weed control at 1000 g/ha [6],pest or weed control at 500 g/ha (Eleusine indica (ELEIN)),pest or weed control at 500 g/ha [1],pest or weed control at 500 g/ha [2],pest or weed control at 500 g/ha [3],pest or weed control at 500 g/ha [4],pest or weed control at 500 g/ha (Lolium perenne (LOLPE)),pest or weed control at 500 g/ha [5],pest or weed control at 500 g/ha (Setaria faberi (SETFA)),pest or weed control at 500 g/ha [6]
"C[C@@H](NC(=O)c1c[n+](C)nc2ccccc12)C(=O)O [Compound A9, (2R)-2-[(2-methylcinnolin-2-ium-4-carbonyl)amino]propanoic acid 2,2,2-trifluoroacetate]",40%,50%,20%,40%,50%,10%,50%,30%,50%,,,,,,,,,
"C[n+]1cc(CP(=O)([O-])O)c2ccccc2n1 [Compound A50, (2-methylcinnolin-2-ium-4-yl)methylphosphonic acid]",30%,30%,20%,20%,20%,0%,20%,10%,60%,,,,,,,,,
C[n+]1cc(C(=O)[N-]S(=O)(=O)C2CC2)c2ccccc2n1 [Compound A12],30%,60%,30%,20%,70%,40%,70%,60%,60%,,,,,,,,,
"C[n+]1cc(C(=O)O)c2ccccc2n1 [Compound A3, 2-methylcinnolin-2-ium-4-carboxylic acid methyl sulfate]",60%,20%,30%,50%,20%,20%,30%,10%,20%,,,,,,,,,
"CCOP(=O)([O-])c1c[n+](C(C)(C)C)nc2ccccc12 [Compound A75, (2-tert-butylcinnolin-2-ium-4-yl)-ethoxy-phosphinate]",,,,,,,,,,70%,50%,70%,30%,30%,30%,30%,30%,50%
"O=C(O)CC[n+]1cc(C(=O)[N-]S(=O)(=O)C2CC2)c2ccccc2n1 [Compound A20, [2-(2-carboxyethyl)cinnolin-2-ium-4-carbonyl]-cyclopropylsulfonyl-azanide]",0%,30%,10%,0%,10%,0%,20%,0%,50%,,,,,,,,,
CCOP(=O)(O)c1c[n+](CCO)nc2ccccc12 [Compound A69],,,,,,,,,,90%,90%,70%,100%,90%,40%,100%,90%,100%
CCCC[n+]1cc(C(=O)[N-]S(C)(=O)=O)c2ccccc2n1 [Compound A41],30%,60%,20%,40%,80%,30%,100%,40%,80%,,,,,,,,,
CC(C)S(=O)(=O)[N-]C(=O)c1c[n+](C)nc2ccccc12 [Compound A34],40%,50%,20%,30%,50%,0%,60%,60%,20%,,,,,,,,,
CCS(=O)(=O)[N-]C(=O)c1c[n+](C)nc2ccccc12 [Compound A37],70%,80%,40%,80%,80%,40%,90%,60%,100%,,,,,,,,,
C[n+]1cc(C(=O)[O-])c2ccccc2n1 [Compound A1],100%,100%,20%,90%,70%,50%,70%,30%,100%,,,,,,,,,
CC(C)P(=O)([O-])c1c[n+](C)nc2ccccc12 [Compound A46],100%,100%,90%,100%,100%,60%,100%,90%,100%,,,,,,,,,
"C[n+]1cc(C(=O)[N-]S(C)(=O)=O)c2ccccc2n1 [Compound A5, (2-methylcinnolin-2-ium-4-carbonyl)-methylsulfonyl-azanide]",90%,90%,50%,90%,90%,50%,90%,70%,100%,,,,,,,,,
COP(=O)(O)Cc1c[n+](C)nc2ccccc12 [Compound A53],100%,70%,80%,90%,100%,30%,100%,90%,100%,,,,,,,,,
CCOP(=O)(O)c1c[n+](CCO)nc2ccccc12 [Compound A71],90%,90%,30%,90%,80%,40%,100%,100%,100%,,,,,,,,,
